Read-outs that look alike come from different tables or passages of the source.
How the values were obtained:
[1] = system: bacterially contaminated Candida tropicalis culture; test: Batch fermentation of xylose to xylitol inoculated with chlorine dioxide-treated, recycled yeast slurry; assay type: cell-based; settings: yeast slurry treated with 100 ppm at room temperature (FIG. 5)
Method: (§1) Xylose and glucose concentrations of each sample were measured as follows: 2 mL of the broth were centrifuged at 14,000 rpm for 3 min to remove cells and the supernatant filtered through a 0.2 μm syringe filter. 10× dilutions of the supernatant were prepared in 5 mM sulfuric acid solution. Dilutions were analyzed via HPLC using an Agilent 1100 Series HPLC stem equipped with an 1100 Series Autosampler and Pumping System and Chemstation control software. A Varian MetaCarb 87H column maintained at 50° C. was used for separation. The eluant was a 5 mM aqueous sulfuric acid solution with a flow rate of 0.600 mL/min. Glucose, ethanol, xylose and xylitol were quantified using an Agilent 1100 Series Refractive Index Detector. Acetic acid and lactic acid were measured using an Agilent 1200 Series Variable Wavelength Detector.
C. tropicalis cells from a frozen glycerol stock used to inoculate 2 L of Ct Inoculation Medium. The inoculum was grown with shaking at 160 rpm for 24 h at 30° C. The cells were harvested by centrifugation and the entire cell pellet was used to inoculate 2 L of Ct Xylose Medium. This culture was grown with shaking at 160 rpm for 24 h at 30° C. and the broth was used to inoculate 10 L of Ct Fermentation Medium. […] The culture was sampled three times daily and the samples analyzed for cell growth, xylose and xylitol as described in Example 2a. […]

[2] = system: bacteria in contaminated yeast slurry; test: Bacterial enumeration on TSA + cycloheximide plates after ClO2 treatment of contaminated yeast slurry; assay type: cell-based
Method: (§2) The yeast was concentrated by centrifugation (4 min, 4000 rpm) and resuspended in the original, contaminated supernatant to 20 g/L, 200 g/L or 300 g/L. Contamination was verified microscopically. The three slurries produced were cooled in an ice-water bath treated with either ClO2 at 0, 10, 50, 250, 500, 750 and 1000 ppm, serially diluted and plated on YM agar (3.0 g/L yeast extract, 3.0 g/L malt extract, 5 g/L peptone, 10 g/L glucose, 20 g/L agar)+chloramphenicol (34 μg/mL) plates for yeast and TSA (15 g/L pancreatic casein digest, 5 g/L enzymatic soy meal digest, 5 g/L NaCl, 15 g/L agar)+cycloheximide (0.05 μg/mL) plates for bacterial enumeration. Plates were incubated overnight at 30° C. and 37° C. for yeast and bacteria, respectively. Plates were counted the next day and bacterial colonies were verified microscopically.

Saccharomyces yeast = settings: for impact on the viability of the yeast: 500 ppm or higher
Method: as §2

[3] = system: contaminated recombinant Saccharomyces cultures; test: Batch fermentation of xylose to ethanol inoculated with chlorine dioxide-treated, recycled yeast slurry; assay type: cell-based
Method: Saccharomyces cells from a frozen glycerol stock were used to inoculate 4 L of Sc Inoculation Medium (pH 6). The inoculum was grown with shaking at 160 rpm for 24 h at 30° C. The cells were harvested by centrifugation (4000 rpm for 5 min) and the entire cell pellet was resuspended in about 50 mL of the supernatant and this was used to inoculate 20 L of Sc Propagation Medium (pH 5.0). A fed-batch fermentation was run for 4 days with mild aeration of 56 slpm and 500 rpm agitation by mechanical stirring. The pH was maintained at 5.0 and the temperature was maintained at 30° C. for the first two days followed by 28° C. for the last two days. A 60 g/L glucose solution was fed to the vessel at a rate of 83.3 mL/h. The culture was sampled three times daily and the samples analyzed for cell growth, xylose and glucose. At the end of the fermentation, the entire broth was harvested and the cells concentrated by centrifugation (4000 rpm for 5 min in multiple 4 L Nalgene bottles). The cell pellets were resuspended to a concentration of 22.5 g cell mass/L. This was used to inoculate 10 L of Sc Fermentation Medium. Batch fermentation was run for 2-3 days with 1 slpm aeration, 250 rpm mechanical agitation. The pH was maintained at 6.0 and the temperature maintained at 28-30° C. The culture was sampled three times daily and the samples analyzed for cell growth, xylose glucose and ethanol.
as §1
[…] The yeast slurry was treated with chlorine dioxide at 50 ppm, 300 ppm and 500 ppm. The yeast slurry was used to re-inoculate fermentors containing 10 L of Sc Fermentation Medium run in batch mode at a starting yeast concentration targeted at 22.5 g/L yeast, as described in Example 2a. The culture was sampled three times daily and the samples analyzed for xylose, lactic acid and ethanol as described in Example 2a.

Lactobacillus strains = settings: cited from earlier work
[4] = 200 g/L yeast slurry treated at 300 ppm (FIG. 3B)
[5] = 300 g/L yeast slurry treated at 500 ppm (FIG. 3C)

SMILES: [O][Cl+][O-] [chlorine dioxide]
- xylitol fermentation product produced versus culture inoculated with the untreated slurry [1]: produced more
- chlorine dioxide dosage that effectively suppresses bacterial growth ([2]; 20 g/L yeast cell suspension): ≥ 250 ppm
- chlorine dioxide dosage required for effective bacterial decontamination ([2]; 200 g/L yeast suspension): ≥ 500 ppm
- chlorine dioxide dosage required for effective bacterial decontamination ([2]; 300 g/L yeast suspension): ≥ 500 ppm
- impact on yeast viability (Saccharomyces yeast; 20 g/L yeast cell suspension, 250 ppm or higher): little to no impact
- impact on the viability of the yeast (Saccharomyces yeast; 200 g/L yeast suspension): little or no impact
- impact on the viability of the yeast (Saccharomyces yeast; 300 g/L yeast suspension): little or no impact
- ethanol product produced versus culture from slurry treated with 50 ppm [3, 4]: significantly more
- unwanted lactic acid byproduct produced versus culture from slurry treated with 50 ppm [3, 4]: less
- ethanol product produced versus culture from slurry treated with 50 ppm [3, 5]: significantly more
- unwanted lactic acid byproduct produced versus culture from slurry treated with 50 ppm [3, 5]: less
- rate of xylose consumption ([3]; cells treated with the higher chlorine dioxide dosages (300, 500 ppm) vs 50 ppm): significantly faster

SMILES: OO [hydrogen peroxide]
- reducing the viability of Lactobacillus (Lactobacillus strains; one of the Lactobacillus species tested): effective

SMILES: O=S(O)O [sulfite]
- susceptibility of bacterial contaminants (two Lactobacillus strains) (Lactobacillus strains; treatment of yeast cells concentrated by filtration): susceptible to sulfite only in the presence of oxygen

From US8426175B2, “Method for the production of a fermentation product from a pretreated lignocellulosic feedstock” (Iogen Energy Corporation, priority 2007, dated 2013)
